This assay deals with T1, VHL-Elongin C-Elongin B (VCB) complex (Homo sapiens, UniProt P40337).
T1 construct: gene (residues 54-213) was cloned into pET28a(+) vector; Elongin C (residues 17-112); His-tag (cleaved yes); made in house; host or cells: E. coli BL21(DE3), M9 minimal media with 15NH4Cl
The assay can be described thus: Protein-observed NMR (1H-15N TROSY) titration of fragment hits against 15N-labeled VCB. The class given is binding. How it is done: All NMR experiments were carried out at 310K using a 900 MHz Bruker Avance III spectrometer equipped with a TXI/TCI CryoProbe and a Bruker SampleJet. Two-dimensional 1H-15N TROSY spectra of VCB complex were recorded using 30-minute acquisition time and analyzed using Topspin 4.1.4 (Bruker). […]
screened as mixtures of 12 fragments prepared in twelve 96-well plates. Each NMR sample was made of 100µM of 15N-labeled VCB, 800µM of each fragment, and 5% DMSO-d6 for spectrometer locking in 3mm-diameter NMR tubes (Bruker). Hit mixtures were identified by comparing the chemical shifts of the backbone resonances to a ligand-free VCB spectrum and then deconvoluted by screening individual fragments.
TROSY titration experiments were used to determine binding affinity of the fragment hits identified from the screen. […]

Where [1] appears, read: TROSY titration, fragment 0.31-10 mM, 310K, Hill's equation model, hits grouped by binding pocket (A unknown, B VHL cryptic, C Elongin C, D HIF1α), read-out: NMR-derived binding affinity (KD).

The values that follow come from article PMC12358976, “NMR-Based Fragment Screen of the von Hippel-Lindau Elongin C&B Complex” (ACS Medicinal Chemistry Letters, 2025).

pKd: −log10 of the molar value. Read-outs that look alike come from different tables or passages of the source.

T1 sequence (P40337 54-213): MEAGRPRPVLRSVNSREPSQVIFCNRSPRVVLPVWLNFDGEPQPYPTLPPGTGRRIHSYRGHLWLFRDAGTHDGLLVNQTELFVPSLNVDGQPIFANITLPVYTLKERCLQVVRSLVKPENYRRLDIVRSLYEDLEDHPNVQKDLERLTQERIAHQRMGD
T1 sequence (Q15369 17-112, further chain): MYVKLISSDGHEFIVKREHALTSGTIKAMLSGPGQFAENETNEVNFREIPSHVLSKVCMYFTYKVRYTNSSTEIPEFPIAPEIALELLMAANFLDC
T1 sequence (Q15370 1-104 partner limits assumed): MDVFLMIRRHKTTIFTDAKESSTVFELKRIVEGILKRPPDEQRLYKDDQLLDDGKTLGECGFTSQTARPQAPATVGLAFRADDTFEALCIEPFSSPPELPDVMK

In the case of `O=C1CCc2cc([N+](=O)[O-])ccc2N1` [compound 1], the pKd under setting [1] was 2.77.
As to `Nc1nc2ccccc2n1Cc1ccccc1` [compound 2], the pKd under setting [1] was 3.31.
Take `CC(C)OC(=O)c1ccc(Cl)c(N)c1` [compound 4]: the pKd under setting [1] was 2.25.
For `CC(C)NC(=O)c1cc2ccc3cccnc3c2[nH]1` [compound 5], the negative-log Kd (pKd) under setting [1] is 2.09.
Regarding `Clc1ccc(CN2CCCCC2)cc1Cl` [compound 6], under setting [1], the pKd is 3.35.
In the case of `CC(=O)c1cccc(NC(=O)c2cccs2)c1` [compound 7], the pKd under setting [1] was 3.33.
On to `SC1=NC2(CCCC2)N=C1c1ccccc1` [compound 8], for which the pKd under setting [1] was 3.28.
Consider `CC(=O)N1CCc2ccc([N+](=O)[O-])cc21` [compound 9], for which the pKd under setting [1] was 3.18.
Consider `O=C(Nc1ccc(F)c(Cl)c1)c1cnccn1` [compound 10], for which, under setting [1], the pKd is 3.15.
`Cc1cc(Nc2cccc(O)c2)c2cccc(C)c2n1` [compound 11]: the pKd under setting [1] was 2.80.
In the case of `CN(C)CCN(C)Cc1ccc(F)cc1` [compound 12], under setting [1], the pKd was 2.89.
In turn, `CC(C)N1CCN(Cc2ccccc2F)CC1` [compound 14] showed a negative-log Kd (pKd) of 2.43.
Take `Nc1ccc2c(c1)ncn2CCO` [compound 15]: under setting [1], the pKd is 2.40.
On the same count and under the same terms, in the case of `Cc1nc2cc(C(=O)O)ccc2n1C` [compound 16] it was 2.22; in that of `O=C(O)c1ccnc2[nH]cnc12` [compound 17], 2.12.
